Test results as given in paper PMC4586518, “Melanin production through novel processing of proopiomelanocortin in the extracellular compartment of the auricular skin of C57BL/6 mice after UV-irradiation” (Scientific Reports, 2015).
Entries after “also recorded” stand apart in the source; their conditions may differ. No end group written: not given here.

Assays:
MC-1R [1] = target: T1, MC-1R (Mus musculus, UniProt Q01727); assay: Inhibition of α-MSH- or ACTH(1–8)-induced melanin production in B16 cells by MC-1R antagonist; assay type: cell-based; details: dose-dependent effect of antagonist, n = 4
T1 construct: Mouse melanoma cell line B16[43], which express MC-1R and produce melanin; host or cells: B16 mouse melanoma cells (adherent, whole cells)
Procedure: Figure 3 ACTH(1–8)-mediated melanin production via the MC-1R. (A). The Radioreceptor assay of ACTH(1–8) (open circle) and α-MSH (closed circle) in mouse melanoma B16 cells. B16 mouse melanoma cells were incubated with [^125I]-α-MSH and 10^−7–10^−11 M ACTH(1–8) or 10^−6–10^−11 M α-MSH. The receptor binding of [^125I]-α-MSH was expressed as 100% in the absence of α-MSH and 0% in the presence of 1 μM α-MSH and calculated as relative activity. (B). ACTH(1–8)- and α-MSH-mediated melanin production. B16 mouse melanoma cells were incubated with 10^−7–10^−11 M ACTH(1–8) (open circle) or 10^−6–10^−11 M α-MSH (closed circle). Melanin levels are expressed as 100% and 0% in the presence of 1 μM α-MSH and absence of α-MSH, respectively, and calculated as the relative activity. C. […] Melanin levels are expressed as 100% and 0% in the presence of 1 μM α-MSH and absence of α-MSH, respectively, and calculated as the relative activity.
Melanin production activity was performed as follows: B16 cells and normal human melanocytes (TOYOBO. Osaka, Japan) were seeded at the density of 1 × 10[5] cells in 24-well plates and allowed to attach overnight. […] Cells were solubilized in 1 M NaOH at 60°C, and melanin content was measured spectrophotometrically at 475 nm. Melanin levels were expressed as 100% and 0% in the presence of 1 μM α-MSH and absence of α-MSH, respectively. […]

frog skin = system: frog skin; set-up: method as in PMID 2822931; details: cited from earlier work
melanin production = details: bioassay studies on melanin production; cited from earlier work
lizard skin = system: lizard skin; set-up: method as in PMID 2537778; details: cited from earlier work
mouse melanoma B16 cells = details: 72 h
Procedure: (B). […] C. […] Each point and line represents the mean ± SEM (n = 4).
Melanin production activity was performed as follows: B16 cells and normal human melanocytes (TOYOBO. Osaka, Japan) were seeded at the density of 1 × 10[5] cells in 24-well plates and allowed to attach overnight. […] Cells were solubilized in 1 M NaOH at 60°C, and melanin content was measured spectrophotometrically at 475 nm.

MC-1R [2] = system: MC-1R; set-up: method as in 2 sources, ref 23 = [23]; PMID 17317724; doi:10.1096/fj.06-7398com; Rousseau K. et al. Proopiomelanocortin (POMC), the ACTH/melanocortin precursor, is secreted by human epidermal keratinocytes and melanocytes and stimulates melanogenesis . FASEB J 21 , 1844 – 1856 ( 2 ||| ref 34 = [34]; PMID 1556905; doi:10.1016/0024-3205(92)90347-r; Slominski. A. et al. Melanotropic activity of gamma MSH peptides in melanoma cells . Life Sci , 50 , 1103 – 1108 ( 1992 ). 1556905 10.1016/0024-3205(92)90347-r; details: cited from earlier work
Text: To clarify the mechanism of melanin production after UV-irradiation, we assessed the expression of POMC and POMC-derived peptides after UV-irradiation to the skin of the murine auricle.

MC-1R [3] = details: cited from earlier work
Text: Melanin plays an important role in protecting skin after UV-irradiation. α-MSH is a major catalyst for melanogenesis in the skin following UV-irradiation. α-MSH-LI and ACTH-LI may be present in culture media of normal keratinocytes, fibroblasts, melanocytes, and their cell extracts. Although POMC and POMC-derived peptides such as ACTH and α-MSH are released from the intermedia of the pituitary, it is unlikely that pituitary secretions contribute to local pigmentation. In the present report, POMC-related peptides were detected in the UV-irradiated auricle ... || Structure-activity analyses of α-MSH have reported information on the essential sequence required for MC-1R binding and melanin production. […] However, Ac-His-Phe-Arg-Trp-NH2 had 400,000-fold less activity (EC50 20 μM) than α-MSH in a frog skin bioassay[31] and approximately 7,000-fold less activity (EC50 1 μM) in a lizard skin bioassay. Furthermore, the N-terminal region of α-MSH is ...

T1 sequence (Q01727 whole entry): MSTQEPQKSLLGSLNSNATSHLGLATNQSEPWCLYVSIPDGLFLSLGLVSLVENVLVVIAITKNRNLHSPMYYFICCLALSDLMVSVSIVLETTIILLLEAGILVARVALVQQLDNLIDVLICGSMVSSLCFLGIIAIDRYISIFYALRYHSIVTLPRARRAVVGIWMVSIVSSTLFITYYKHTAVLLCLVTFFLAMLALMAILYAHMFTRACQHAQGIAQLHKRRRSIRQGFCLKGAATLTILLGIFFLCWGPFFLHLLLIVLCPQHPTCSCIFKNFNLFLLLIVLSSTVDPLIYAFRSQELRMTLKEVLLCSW

ASP(87–132)-NH2: a MC-1R antagonist (TPLSAPCVATRNSCKPPAPACCDPCASCQCRFFRSACSCRVLSLNC-NH2; cysteine pairing not given here; UniProt P42127 87-132, looked up, fragment)
effect on ACTH(1–8)-mediated melanin production (MC-1R [1]; 10^−7 M ACTH(1–8)): competitively attenuated; also recorded: decreased both ACTH(1–8)- and α-MSH-mediated melanogenesis
effect on α-MSH-mediated melanin production (MC-1R [1]; 10^−8 M α-MSH): decreased both ACTH(1–8)- and α-MSH-mediated melanogenesis

Ac-His-Phe-Arg-Trp-NH2
EC50 (frog skin; frog skin, read-out: EC50, frog skin bioassay): 20000 nM
fold less activity than α-MSH, frog skin bioassay (frog skin; relative to α-MSH): 400,000 fold
melanotropic response (melanin production): minimal synthetic fragment capable of eliciting a melanotropic response
EC50 (lizard skin; lizard skin, read-out: EC50, lizard skin bioassay): 1000 nM
fold less activity than α-MSH, lizard skin bioassay (lizard skin; relative to α-MSH): approximately 7,000 fold

SYSMEHFR [ACTH(1–8)]
EC50 (mouse melanoma B16 cells): 80 nM

adrenocorticotropic hormone (SYSMEHFRWGKPVGKKRRPVKVYPNGAEDESAEAFPLEF; Corticotropin; UniProt P01189 138-176, looked up) [ACTH, intermediate form of α-MSH, produced from POMC; 4.5 kDa]
agonism at MC-1R (MC-1R [2]; MC1-R): known agonists

γ-MSH
melanin production (MC-1R [3]): increases melanin production
antagonism against MC-1R (MC-1R [2]): competitive antagonist against MC-1R
potency when binding to MC-1R (MC-1R [2]; compared with ACTH(1–8)): potent when binding to MC-1R, but at low potency levels similar to ACTH(1–8)
